Drawing on a melting point compilation (Tetko et al.; mined from patent text by program, amines drawn as free bases though some values may be those of a salt), this text covers melting point for 65 compounds.

The structures appear in SMILES notation. A value given as a limit tells only on which side of the number the result lay.

A word on the melting point: it is the temperature of the solid-liquid transition. For `COc1ccc(S(=O)(=O)CC(C)=CCOC(C)=O)cc1`, the melting point was 54 to 56 °C.

Take `CCCCCCC/C=C\CCCCCCCC(=O)CCCNC(C)=O`: the melting point was 51 to 52 °C.

For the compound `O=C(Nc1n[nH]c(=S)s1)N[C@@H](Cc1ccccc1)C(=O)N1CCOCC1`, the melting point fell in the range of 213 to 216 °C.

`Cc1c(Br)cc(C(C)(C)C)c(O)c1C1=Nc2cc(Cl)ccc2S(=O)(=O)N1` returned a melting point of 270 to 271 °C.

As for `O[C@H]1c2ccccc2C=C[C@@H]1OC(C(F)(F)F)C(F)(F)F`, the melting point was in the range of 88.5 to 90 °C.

As to `Cn1cc(OS(C)(=O)=O)c(=O)c2ccc(S(C)=O)cc21` (stereo not given), the melting point amounted to 248 °C.

The compound `COC(=O)c1ccc(C=Cc2ccc(OC)cc2)nc1` registered a melting point of 170 °C.

Take `CCCCC1CCc2c(OCc3ccc4ccccc4n3)cccc2C1=O` (stereo not given): the melting point is 97 to 98 °C.

In turn, `NC(=O)c1ccc([N+](=O)[O-])c(N2CC2)c1` displayed a melting point of 223 to 224 °C.

For the compound `O=C(O)Cc1cccc(Oc2ccc(Cl)cc2)c1[N+](=O)[O-]`, the melting point was 167 to 170 °C.

`CC(C)c1ccc(C2c3cc(N)ccc3OC2(C)C)cc1` (stereo not given) yielded a melting point of 109 to 110 °C.

The compound `COc1ccc(S(=O)(=O)N2C(=O)C(c3ccccc3OC)(N3Cc4ccccc4C[C@H]3C(=O)N(C)C)c3cc(Cl)c(Cl)cc32)c(OC)c1` (stereo not given in full) returned a melting point of 155 °C.

For the compound `Cc1ccc(S(=O)(=O)OCC2Cc3cccc(C=Cc4ccccc4)c3O2)cc1` (stereo not given), the melting point was in the range of 120 to 122 °C.

Turning to `Nc1c(CC(=O)O)cc(Cl)cc1Oc1ccccc1F`, the melting point lay within 154 to 156 °C.

Take `COc1cc(-c2nc(C)ncc2Br)c(F)cc1Cl`: the melting point lay in the range of 106 to 107 °C.

Consider `CCOC(=O)C(=CNc1cccc(N)c1)C(=O)OCC`, for which the melting point fell in the range of 71 to 74 °C.

Compound `CC(=O)OCC1OC(N(CCCl)P(=O)(O)NCCCl)C(OC(C)=O)C(OC(C)=O)C1OC(C)=O` (stereo not given) displayed a melting point of 91 °C.

In the case of `CCn1c(=O)[nH]c2c3cccnc3ccc21`, the melting point fell in the range of 258 to 259 °C.

As to `COc1cc(Cl)nc(Nc2ccccc2)n1`, the melting point was 101 to 103 °C.

Take `O=C(O)c1ccc2c(c1)COC2c1ccc(F)cc1` (stereo not given): the melting point lay in the range of 187 to 190 °C.

`Nc1nc(-c2ccc3ncccc3c2)c(-c2ccccn2)s1` showed a melting point of 226 °C.

Turning to `COc1ccccc1CC(=O)N1C[C@H]2C(c3ccccc3OC)=CCC(c3ccccc3)(c3ccccc3)[C@H]2C1`, the melting point is 142 °C.

With `Cc1cccc(CCOc2ccc(C#N)cc2)n1`, the melting point lay in the range of 66 to 67 °C.

The compound `CS(=O)(=O)c1ccc(CCN2CC=C(c3c[nH]c(-c4ccc(F)cc4)c3-c3ccncc3)CC2)cc1` came in with a melting point of 207 to 209 °C.

Turning to `COC(=O)c1cc(Cl)c(C)c(Cl)c1`, the melting point lay within 47.5 to 48.5 °C.

On to `CCOC(=O)ON(C(N)=O)[C@H]1C[C@@H](c2ccc(F)cc2)C1`, for which the melting point lay in the range of 124 to 126 °C.

With `CC(=O)NCc1ccc(C(C)O)cc1` (stereo not given), the melting point is 61 to 62 °C.

In turn, `Cn1c(/C=C/C(=O)Cl)c(-c2ccccc2)c2ccccc2c1=O` had a melting point of 213 to 215 °C.

For `CC1(C)COC(=O)N1c1nc(-c2cccc(Br)c2)cs1`, the melting point lay within 142 to 144 °C.

Compound `CCOC(=O)C(Oc1ccc2ccccc2c1)C(=O)OCC` came in with a melting point of 57 to 58.5 °C.

For `CC1(n2cc(C(=O)O)c(=O)c3cc(F)c(N4CCC(N)C4)c(F)c32)CC1` (stereo not given), the melting point was more than 300 °C.

For the compound `CN(C)C1(c2ccccc2)CCC(CNC(=O)NCCc2c[nH]c3ccccc23)CC1` (stereo not given), the melting point was 159 to 163 °C.

Consider `CCOC(=O)c1sc(SC)c2c1CCc1cn(C)nc1-2`, for which the melting point is 193 to 194 °C.

Compound `COc1ccc(S(=O)(=O)N(CCC(=O)N2CCC(C(=O)O)CC2)C(CCc2ccccc2)C(=O)NO)cc1` (stereo not given) came in with a melting point of 85 to 92 °C.

With `COc1cc(=O)n(-c2cccc(C(F)(F)F)c2)nc1-c1ccnn1-c1ccccc1`, the melting point lay in the range of 165 to 167 °C.

In turn, `CC1COc2c(OC3CCN(C)CC3)c(F)cc3c(=O)c(C(=O)O)cn1c23` (stereo not given) came in with a melting point of 234 to 238 °C.

In the case of `Nc1c(CC(=O)O)cccc1Oc1ccccc1Cl`, the melting point fell in the range of 86 to 90 °C.

With `CCOC(=O)c1cc2c(OCc3ccccc3)cc(C)cc2[nH]1`, the melting point lay within 167 to 168 °C.

`CN(C)c1ccc(O)c(CNCCc2ccc(N=C(N)c3cccs3)cc2)c1`: the melting point lay in the range of 182 to 183 °C.

Consider `CSc1nn2c(Cl)cc(Cl)nc2c1S(=O)(=O)c1ccccc1`, for which the melting point fell in the range of 193 to 197 °C.

In turn, `Cn1cc(C(O)(c2ccc3c(cnn3C(=O)NC3CC3)c2)C(F)(F)F)c2ccccc21` (stereo not given) returned a melting point of 116 to 118 °C.

Turning to `CCOC(=O)c1c(Cl)nn(C)c1S(=O)(=O)NC(=O)OC`, the melting point was in the range of 107 to 110 °C.

The compound `COP(=O)(CC(=O)COc1ccc(Cl)cn1)OC` displayed a melting point of 37 to 40 °C.

The compound `CC(=O)N[C@H]1CC[C@H](CCN2CCN(c3nc(C)cc4c3CCO4)CC2)CC1` showed a melting point of 218 °C.

As for `CC(=O)ON1C(C)(C)CC(OC(=O)c2ccc(C(=O)OC3CC(C)(C)N(OC(C)=O)C(C)(C)C3)cc2)CC1(C)C`, the melting point fell in the range of 206 to 212 °C.

In turn, `CC(C)C(F)(C(=O)O)c1ccc(Cl)cc1` (stereo not given) yielded a melting point of 120 °C.

`CC(=O)C=Cc1c(C)c(C)c(C)c2c1OCC2` returned a melting point of 116 °C.

As for `COC(=O)Nc1nc2cc(SCC3CC3(Cl)Cl)ccc2[nH]1` (stereo not given), the melting point was in the range of 211 to 213 °C.

Compound `CN(C(N)=O)C1CCCc2ccccc21` (stereo not given) showed a melting point of 160 to 163 °C.

On to `Cc1nnc(-c2ccc3occ(-c4cc(F)ccc4F)c3n2)o1`, for which the melting point lay in the range of 185 to 186 °C.

Consider `COc1cccc(Cn2c(=O)c3c(N4CCN(C)CC4)cc(Cl)cc3n(Cc3ccccc3)c2=O)c1`, for which the melting point was in the range of 98 to 110 °C.

As to `CN(CCCCOc1ccc(CC2SC(=O)NC2=O)cc1)c1nc2ccccc2o1` (stereo not given), the melting point worked out at 112 °C.

As to `COc1cc(OC)c2c(=O)[nH]c(-c3ccc4[nH]nc(CO)c4c3)nc2c1`, the melting point was in the range of 264 to 266 °C.

`Cn1c(Cl)c(C#N)c2ccccc21` gave a melting point of 112 to 114 °C.

In the case of `CCCCNC(=O)C1=C(C(=O)Nc2cc(OC3CCCC3)c(Cl)cc2F)CCCC1`, the melting point was in the range of 142 to 144 °C.

Consider `OC[C@H]1C[C@@H]2c3ccccc3Oc3ccc(F)cc3[C@H]2N1`, for which the melting point lay in the range of 108 to 109 °C.

As to `OCC1OC(n2c(C(F)(F)F)nc3c(Cl)cc(Cl)cc32)C(O)C1O` (stereo not given), the melting point is 162 °C.

In the case of `CC(=O)Nc1ccc(Cl)cc1C(=O)c1c(F)cccc1F`, the melting point fell in the range of 106 to 116 °C.

`O=C(CCn1ccnc1)N1c2ccccc2S(=O)c2ccc(Cl)cc21` (stereo not given) showed a melting point of 148 to 149 °C.

As to `CN(c1nccc(-n2nnc3ccccc32)n1)[C@H]1CC[C@H](N(C)S(C)(=O)=O)CC1`, the melting point came to 204 °C.

`CCN(C)c1nc2cc(NC(=O)c3c(C(=O)N4CCOCC4)cnn3C)ccn2n1` returned a melting point of 167 to 169 °C.

In turn, `Fc1cc2cc3n(c2cc1Cl)CCNC3` had a melting point of 195 to 197 °C.

With `N#CC(=Cc1ccc(O)c(O)c1)C(=O)NCCCNC(=O)C(C#N)=Cc1ccc(O)c(O)c1`, the melting point worked out at 274 °C.

In turn, `Oc1ccccc1-c1nc(-c2ccccc2O)n(CC(F)(F)F)n1` came in with a melting point of 154 to 156 °C.

Regarding `O=c1c(-c2ccc(F)cc2)c(-c2ccc(SC(F)(F)F)cc2)cnn1Cc1ccccc1`, the melting point fell in the range of 145 to 146 °C.
